One test relates to mexB (PA) strain. As to the kind of experiment: Combinational effect with antibacterial agent against Pseudomonas aeruginosa (Test Examples 2 and 4): mexB (PA) strain with LVFX, TC or AZT at 1/4 MIC, EC99. It is filed as cell-based. The conditions noted are these: for EC99, combinational effect with AZT, mexB (PA) / EC99, combinational effect with LVFX, mexB (PA) / EC99, combinational effect with TC, mexB (PA): mexB (PA) strain, Test Example 4; for EC99, combinational effect with AZT, mexB (PA) / EC99, mexB (PA), AZT: combined with AZT at 1/4 MIC; for EC99, combinational effect with LVFX, mexB (PA) / EC99, mexB (PA), LVFX: combined with LVFX at 1/4 MIC; for EC99, combinational effect with TC, mexB (PA) / EC99, mexB (PA), TC: combined with TC at 1/4 MIC; for EC99, mexB (PA), AZT / EC99, mexB (PA), LVFX / EC99, mexB (PA), TC: Table 52, Test Example 2, 16 to 20 hours culture, OD595. The gist of the method: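 EC99 denotes the minimum test-compound concentration (range 0–800 μM) that suppresses ≥99% of growth, measured by OD595, when combined with ¼ MIC levofloxacin (LVFX), tetracycline or aztreonam. The efflux-pump mutant mexB (PA), expressing mainly MexAB-OprM, was inoculated at 10^4–5 CFU/well in CAMHB for 16–20 h.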

For the next test, the system named is S-3769 strain. As to the kind of experiment: Combinational effect with antibacterial agent against Pseudomonas aeruginosa (Test Examples 2 and 4): S-3769 strain with AMK or GM at 1/4 MIC, EC99. It is filed as cell-based. The conditions noted are these: for EC99, combinational effect with AMK, S-3769 strain / EC99, S-3769 strain, AMK: combined with AMK at 1/4 MIC; for EC99, combinational effect with AMK, S-3769 strain / EC99, combinational effect with GM, S-3769 strain: Test Example 4; for EC99, combinational effect with GM, S-3769 strain / EC99, S-3769 strain, GM: combined with GM at 1/4 MIC; for EC99, S-3769 strain, AMK / EC99, S-3769 strain, GM: Table 52, Test Example 2, 16 to 20 hours culture, OD595. Summed up:
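EC99, the lowest test-compound concentration inhibiting growth by ≥99% (OD595), was measured with aminoglycoside AMK or GM held at ¼ MIC. Strain S-3769, a MexY-overexpressing clinical isolate, was cultured in CAMHB at 10^4 to 5 CFU/well for 16–20 h; compound range 0–800 μM.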

SMILES strings stand for the structures. Counter-ions that a name gives are not always drawn.

For the compound `CSc1ccccc1CN1CCN(C(=O)[C@H](N)C2CCN(CCc3cc(Cl)ccc3C3=CCNCC3)CC2)CC1` [Example 602, Hydrochloride of (R)-2-amino-2-(1-(5-chloro-2-(1,2,3,6-tetrahydropyridin-4-yl)phenethyl)piperidin-4-yl)-1-(4-(2-(methylthio)benzyl)piperazin-1-yl) ethan-1-one], in the test with mexB (PA) strain, the “EC99, combinational effect with AZT, mexB (PA)” value (shortened to “EC99 … with AZT, mexB (PA)”) is “B (25 μM<EC99≤100 μM)”; the “EC99, combinational effect with LVFX, mexB (PA)” value (“EC99 … with LVFX, mexB (PA)” for short) is “S (EC99≤12.5 μM)”; the “EC99, combinational effect with TC, mexB (PA)” value (“EC99 … with TC, mexB (PA)” for short) is reported as “S (EC99≤12.5 μM)”. For the same compound, in the test with S-3769 strain, the “EC99, combinational effect with AMK, S-3769 strain” value (shortened to “EC99, combinational effect with AMK”) is reported as “S (EC99≤12.5 μM)” and the “EC99, combinational effect with GM, S-3769 strain” value (shortened to “EC99, combinational effect with GM”) is recorded as “S (EC99≤12.5 μM)”.

For the compound `CCSc1ccc(O)cc1CN1CCN(C(=O)[C@H](N)C2CCN(CCc3cc(Cl)ccc3-c3cc(O)ccc3F)CC2)CC1` [Example 621, (R)-2-amino-2-(1-(2-(4-chloro-2′-fluoro-5′-hydroxy-[1,1′-biphenyl]-2-yl)ethyl)piperidin-4-yl)-1-(4-(2-(ethylthio)-5-hydroxybenzyl)piperazin-1-yl)ethan-1-one], in the test with mexB (PA) strain, the “EC99 … with AZT, mexB (PA)” value was “S (EC99≤12.5 μM)”; the “EC99 … with LVFX, mexB (PA)” value is “S (EC99≤12.5 μM)”; the “EC99 … with TC, mexB (PA)” value is recorded as “S (EC99≤12.5 μM)”. In the test on S-3769 strain, the “EC99, combinational effect with AMK” value is reported as “S (EC99≤12.5 μM)” and the “EC99, combinational effect with GM” value is “S (EC99≤12.5 μM)”.

As to `CSc1ccccc1CN1CCN(C(=O)[C@H](N)C2CCN(CCc3cc(Cl)ccc3-c3ccccc3O)CC2)CC1` [Example 592, Hydrochloride of (R)-2-amino-2-(1-(2-(4-chloro-2′-hydroxy-[1,1-biphenyl]-2-yl)ethyl)piperidin-4-yl)-1-(4-(2-(methylthio)benzyl)piperazin-1-yl)ethan-1-one], in the test on mexB (PA) strain, the “EC99 … with AZT, mexB (PA)” value was “S (EC99≤12.5 μM)”; the “EC99 … with LVFX, mexB (PA)” value is reported as “S (EC99≤12.5 μM)”; the “EC99 … with TC, mexB (PA)” value is recorded as “S (EC99≤12.5 μM)”. In the test on S-3769 strain, the “EC99, combinational effect with AMK” value is “A (12.5 μM<EC99≤25 μM)” and the “EC99, combinational effect with GM” value is “B (25 μM<EC99≤100 μM)”.

As to `CCSc1cc(F)ccc1CN1CCN(C(=O)[C@H](N)C2CCN(CCc3cc(Cl)ccc3-c3cccc(N)c3)CC2)CC1` [Example 544, hydrobromide of (R)-2-amino-2-(1-(2-(3′-amino-4-chloro-[1,1′-biphenyl]-2-yl)ethyl)piperidin-4-yl)-1-(4-(2-(ethylthio)-4-fluorobenzyl)piperazin-1-yl)ethan-1-one], in the test with mexB (PA) strain, the “EC99 … with AZT, mexB (PA)” value was “S (EC99≤12.5 μM)”; the “EC99 … with LVFX, mexB (PA)” value was “S (EC99≤12.5 μM)”; the “EC99 … with TC, mexB (PA)” value is “S (EC99≤12.5 μM)”. For the same compound, in the test with S-3769 strain, the “EC99, combinational effect with AMK” value was “A (12.5 μM<EC99≤25 μM)” and the “EC99, combinational effect with GM” value is “S (EC99≤12.5 μM)”.

For `CCSc1ccc(O)cc1CN1CCN(C(=O)[C@H](N)C2CCN(CCc3cc(Cl)ccc3-c3cccc(O)c3Cl)CC2)CC1` [Example 622, Hydrochloride of (R)-2-amino-2-(1-(2-(2′,4-dichloro-3′-hydroxy-[1,1-biphenyl]-2-yl)ethyl)piperidin-4-yl)-1-(4-(2-(ethylthio)-5-hydroxybenzyl)piperazin-1-yl)ethan-1-one], in the test on mexB (PA) strain, the “EC99 … with AZT, mexB (PA)” value is listed as “S (EC99≤12.5 μM)”; the “EC99 … with LVFX, mexB (PA)” value is reported as “S (EC99≤12.5 μM)”; the “EC99 … with TC, mexB (PA)” value was “S (EC99≤12.5 μM)”. Further, in the test on S-3769 strain, the “EC99, combinational effect with AMK” value was “S (EC99≤12.5 μM)” and the “EC99, combinational effect with GM” value was “A (12.5 μM<EC99≤25 μM)”.

On to `CCSc1cc(F)ccc1CN1CCN(C(=O)[C@H](N)C2CCN(CCc3cc(Cl)ccc3-c3cc(O)cc(F)c3)CC2)CC1` [Example 609, (R)-2-amino-2-(1-(2-(4-chloro-3′-fluoro-5′-hydroxy-[1,1′-biphenyl]-2-yl)ethyl)piperidin-4-yl)-1-(4-(2-(ethylthio)-4-fluorobenzyl)piperazin-1-yl)ethan-1-one], for which, in the test with mexB (PA) strain, the “EC99 … with AZT, mexB (PA)” value was “S (EC99≤12.5 μM)”; the “EC99 … with LVFX, mexB (PA)” value is “S (EC99≤12.5 μM)”; the “EC99 … with TC, mexB (PA)” value is “S (EC99≤12.5 μM)”. In the test with S-3769 strain, the “EC99, combinational effect with AMK” value is “S (EC99≤12.5 μM)” and the “EC99, combinational effect with GM” value is “S (EC99≤12.5 μM)”.

As to `CCOc1cccc(F)c1CN1CCN(C(=O)CN2CCC(O)(CCc3ccccc3)CC2)CC1` [Example 422, hydrochloride of 1-(4-(2-ethoxy-6-fluorobenzyl)piperazin-1-yl)-2-(4-hydroxy-4-phenethylpiperidin-1-yl)ethan-1-one], in the test with mexB (PA) strain, the “EC99, mexB (PA), AZT” value is listed as “A (12.5 μM<EC99≤25 μM)”; the “EC99, mexB (PA), LVFX” value was “B (25 μM<EC99≤100 μM)”; the “EC99, mexB (PA), TC” value is “A (12.5 μM<EC99≤25 μM)”. Moreover, in the test with S-3769 strain, the “EC99, S-3769 strain, AMK” value is “C (100 μM<EC99)” and the “EC99, S-3769 strain, GM” value is “C (100 μM<EC99)”.

On to `CCSc1cc(F)ccc1CN1CCN(C(=O)[C@H](N)C2CCN(CCc3cc(Cl)ccc3-c3ccccc3F)CC2)CC1` [Example 598, Hydrochloride of (R)-2-amino-2-(1-(2-(4-chloro-2′-fluoro-[1,1-biphenyl]-2-yl)ethyl)piperidin-4-yl)-1-(4-(2-(ethylthio)-4-fluorobenzyl)piperazin-1-yl) ethan-1-one], for which, in the test with mexB (PA) strain, the “EC99 … with AZT, mexB (PA)” value was “S (EC99≤12.5 μM)”; the “EC99 … with LVFX, mexB (PA)” value is “S (EC99≤12.5 μM)”; the “EC99 … with TC, mexB (PA)” value was “S (EC99≤12.5 μM)”. In the test with S-3769 strain, the “EC99, combinational effect with AMK” value is “A (12.5 μM<EC99≤25 μM)” and the “EC99, combinational effect with GM” value is reported as “S (EC99≤12.5 μM)”.

For the compound `CCOc1cccc(F)c1CN1CCN(C(=O)[C@H](N)C2CCN(CCc3cc(OC)ccc3-c3ccccc3)CC2)CC1` [Example 51, Hydrobromide of (R)-2-amino-1-(4-(2-ethoxy-6-fluorobenzyl)piperazin-1-yl)-2-(1-(2-(4-methoxy-[1,1′-biphenyl]-2-yl)ethyl)piperidin-4-yl)ethan-1-one], in the test on mexB (PA) strain, the “EC99, mexB (PA), AZT” value is listed as “B (25 μM<EC99≤100 μM)”; the “EC99, mexB (PA), LVFX” value is “B (25 μM<EC99≤100 μM)”; the “EC99, mexB (PA), TC” value is “B (25 μM<EC99≤100 μM)”. In the test on S-3769 strain, the “EC99, S-3769 strain, AMK” value was “A (12.5 μM<EC99≤25 μM)” and the “EC99, S-3769 strain, GM” value is listed as “S (EC99≤12.5 μM)”.

`CCSc1cccc(O)c1CN1CCN(C(=O)[C@H](N)C2CCN(CCc3cc(Cl)ccc3-c3ccccc3)CC2)CC1` [Example 591, Hydrochloride of (R)-2-amino-2-(1-(2-(4-chloro-[1,1-biphenyl]-2-yl)ethyl)piperidin-4-yl)-1-(4-(2-(ethylthio)-6-hydroxybenzyl)piperazin-1-yl)ethan-1-one]: in the test on mexB (PA) strain, the “EC99 … with AZT, mexB (PA)” value was “S (EC99≤12.5 μM)”; the “EC99 … with LVFX, mexB (PA)” value is listed as “S (EC99≤12.5 μM)”; the “EC99 … with TC, mexB (PA)” value is “S (EC99≤12.5 μM)”. Also, in the test with S-3769 strain, the “EC99, combinational effect with AMK” value is reported as “B (25 μM<EC99≤100 μM)” and the “EC99, combinational effect with GM” value is “B (25 μM<EC99≤100 μM)”.

As for `CCOc1cccc(F)c1CN1CCN(C(=O)[C@H](N)C2CCN(CCc3cc(Cl)ccc3-c3cc(O)ccc3Cl)CC2)CC1` [Example 586, Hydrochloride of (R)-2-amino-2-(1-(2-(2′,4-dichloro-5′-hydroxy-[1,1-biphenyl]-2-yl)ethyl)piperidin-4-yl)-1-(4-(2-ethoxy-6-fluorobenzyl)piperazin-1-yl)ethan-1-one], in the test on mexB (PA) strain, the “EC99 … with AZT, mexB (PA)” value is on record as “S (EC99≤12.5 μM)”; the “EC99 … with LVFX, mexB (PA)” value is given as “S (EC99≤12.5 μM)”; the “EC99 … with TC, mexB (PA)” value was “S (EC99≤12.5 μM)”. Further, in the test on S-3769 strain, the “EC99, combinational effect with AMK” value is “A (12.5 μM<EC99≤25 μM)” and the “EC99, combinational effect with GM” value is on record as “S (EC99≤12.5 μM)”.

With `CCOc1cccc(F)c1CN1CCN(C(=O)[C@H](N)C2CCN(CCc3cc(Cl)ccc3-c3cccc(N(C)C)c3)CC2)CC1` [Example 562, Hydrobromide of (R)-2-amino-2-(1-(2-(4-chloro-3′-(dimethylamino)-[1,1-biphenyl]-2-yl)ethyl)piperidin-4-yl)-1-(4-(2-ethoxy-6-fluorobenzyl)piperazin-1-yl)ethan-1-one], in the test on mexB (PA) strain, the “EC99 … with AZT, mexB (PA)” value is reported as “A (12.5 μM<EC99≤25 μM)”; the “EC99 … with LVFX, mexB (PA)” value is listed as “B (25 μM<EC99≤100 μM)”; the “EC99 … with TC, mexB (PA)” value was “B (25 μM<EC99≤100 μM)”. Besides, in the test on S-3769 strain, the “EC99, combinational effect with AMK” value was “S (EC99≤12.5 μM)” and the “EC99, combinational effect with GM” value is on record as “S (EC99≤12.5 μM)”.

The values above are taken from patent US20250326744A1, “PIPERAZINE DERIVATIVE OR SALT THEREOF, AND PHARMACEUTICAL COMPOSITION” (priority 2022, published 2025).
